Reference: patent US20160046592A1, “PHARMACEUTICAL COMPOSITION FOR THE TREATMENT OF DIABETES” (Ajinomoto Co., Inc., priority 2013, published 2016)
Counter-ions that a name gives are not always drawn.

What follows are compounds tested against T1, PPAR-α (Homo sapiens, UniProt Q07869) (assay: Measurement of PPAR-α activity (GAL4 luciferase reporter assay in CV-1 cells)). Conditions: 100(A/B): A = maximum PPAR-α activity of test compound at 3, 10, 30 and 100 μM, B = activity of the compound of WO/2011/058154 at 100 μM, 18 to 20 hours.
T1 construct: expressed in transfected cells; host or cells: CV-1 (African green monkey kidney)
T1 sequence (Q07869 167-468): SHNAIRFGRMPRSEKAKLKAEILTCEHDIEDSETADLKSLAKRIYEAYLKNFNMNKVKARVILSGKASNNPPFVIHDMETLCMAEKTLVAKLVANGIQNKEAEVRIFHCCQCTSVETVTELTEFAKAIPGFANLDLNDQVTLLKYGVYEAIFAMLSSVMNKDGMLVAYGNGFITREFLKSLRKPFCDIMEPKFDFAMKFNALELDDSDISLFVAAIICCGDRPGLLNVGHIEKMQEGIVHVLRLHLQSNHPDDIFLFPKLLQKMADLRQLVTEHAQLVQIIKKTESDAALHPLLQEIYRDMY
Format: cell-based
Protocol: The PPAR-α activity was measured according to the published article (THE JOURNAL OF BIOLOGICAL CHEMISTRY Vol. 270, No 0.22: 12953-12956, 1995).
Plasmids used for the PPAR-α activity measurement were constructed as follows. A luciferase expression plasmid (UAS×5-TK-Luc) used was obtained by introducing a sequence in which five yeast GAL4-binding sequences are linked in tandem into a portion upstream of a thymidine kinase promoter of pTAL-Luc (Takara Bio Inc., 6252-1). A PPAR-α receptor expression plasmid (hGR-GAL4-hPPARα) used was obtained by introducing a human GR N-terminal region (1-76aa), a yeast GAL4 DNA-binding region (1-147aa), and a PPARα ligand-binding region (167-468aa) between Not I and Sal I sites of pExchange-1 Core Vector (Invitrogen, 211176).
A reporter assay was conducted by the following method using African green monkey kidney-derived CV-1 cells. The CV-1 cells were seeded in a 96-well plate (Thermo Fisher Scientific K.K., 4938) at 2×10^4 cells/well by using a 10% FBS-containing DMEM (NACALAI TESQUE, INC., 0845874) medium. After culturing under conditions of 37° C. and 5% CO2 for 2 hours, the cells were transfected with the plasmids. The transfection was conducted by using Lipofectamine LTX (Invitrogen, 15338-100) according to the attached manual. The plasmid solution was prepared by adding a mixture solution of the luciferase expression plasmid and the PPAR-α receptor expression plasmid to OPTI-MEM I (Invitrogen, 11058-021). After the transfection, the test compound was added, and the cells were cultured at 37° C. in the presence of 5% CO2 for 18 to 20 hours. After the culturing, the luciferase activity was measured with Luminescensor JNR (ATTO) by using Bright-Glo (Promega, E2620).
The fold induction of PPAR-α by each test compound was calculated by the following method. A relative fold induction (%) of PPAR-α by the test compound was defined as 100 (A/B), where A represents the maximum value of the PPAR-α activities of the test compound at 3 μM, 10 μM, 30 μM, and 100 μM, and B represents the PPAR-α activity of the compound of WO/2011/058154 at 100 μM.

Relative fold induction (%) of PPAR α	Compound
10%	NC(=O)C1CC[C@@H](C(=O)O)N1C(=O)c1cccc(COc2ccc(-c3cc(F)c(F)c4ccoc34)cc2)c1 (single isomer, unassigned) [Example 4, (2S,5R) or (2S,5S)-5-Carbamoyl-1-[3-[[4-(4,5-difluorobenzofuran-7-yl)phenoxy]methyl]benzoyl]pyrrolidine-2-carboxylic Acid]
7.8%	CSc1cc(F)c(F)cc1-c1ccc(OCc2cccc(C(=O)N3C(C(N)=O)CC[C@H]3C(=O)O)c2)cc1 (single isomer, unassigned) [Example 58, (2S,5S) or (2S,5R)-5-Carbamoyl-1-[3-[[4-(4,5-difluoro-2-methylsulfanyl-phenyl)phenoxy]methyl]benzoyl]pyrrolidine-2-carboxylic Acid]
42%	NC(=O)C1CC[C@@H](C(=O)O)N1C(=O)c1cccc(COc2ccc(-c3cc(F)c(F)c4ccoc34)cc2)c1 (single isomer, unassigned) [Example 76, (2S,5S) or (2S,5R)-5-Carbamoyl-1-[3-[[4-(4,5-difluorobenzofuran-7-yl)phenoxy]methyl]benzoyl]pyrrolidine-2-carboxylic Acid]

Same assay, conditions: 100(A/B): A = maximum PPAR-α activity of test compound at 3, 10, 30 and 100 μM, B = activity of the compound of WO/2011/058154 at 100 μM, 18 to 20 hours, read-out: Relative fold induction (%) of PPAR α

Emax	Compound
6.7%	CSc1cc(F)c(F)cc1-c1ccc(OCc2cccc(C(=O)N3C(C(N)=O)CC[C@H]3C(=O)O)c2)cc1 (single isomer, unassigned) [Example 57, (2S,5R) or (2S,5S)-5-Carbamoyl-1-[3-[[4-(4,5-difluoro-2-methylsulfanyl-phenyl)phenoxy]methyl]benzoyl]pyrrolidine-2-carboxylic Acid]
13%	COC1CCN(C(=O)c2cccc(COc3ccc(-c4cc(F)c(F)cc4SC)cc3)c2)C1C(=O)O (stereo in doubt) [Example 33, (2S,3S)-1-[3-[[4-(4,5-Difluoro-2-methylsulfanyl-phenyl)phenoxy]methyl]benzoyl]-3-methoxy-pyrrolidine-2-carboxylic Acid]
4.7%	O=C(O)CN(CC1CCNCC1)C(=O)c1cccc(COc2ccc(-c3cc(F)c(F)c4ccoc34)cc2)c1 [Example 12, 2-[[3-[[4-(4,5-Difluorobenzofuran-7-yl)phenoxy]methyl]benzoyl]-(4-piperidylmethyl)amino]acetic Acid Trifluoroacetate]
5.3%	CN(C)CCN(CC(=O)O)C(=O)c1cccc(COc2ccc(-c3cc(F)c(F)c4ccoc34)cc2)c1 [Example 13, 2-[[3-[[4-(4,5-Difluorobenzofuran-7-yl)phenoxy]methyl]benzoyl]-(2-dimethylaminoethyl)amino]acetic Acid Trifluoroacetate]
7.5%	Cc1coc2c(-c3ccc(OCc4cccc(C(=O)N(CCS(C)(=O)=O)CC(=O)O)c4)cc3)cc(F)c(F)c12 [Example 14, 2-[[3-[[4-(4,5-Difluoro-3-methyl-benzofuran-7-yl)phenoxy]methyl]benzoyl]-(2-methylsulfonylethyl)amino]acetic Acid]
12%	CNC(=O)CN(CC(=O)O)C(=O)c1cccc(COc2ccc(-c3cc(F)c(F)c4ccoc34)cc2)c1 [Example 15, 2-[[3-[[4-(4,5-Difluorobenzofuran-7-yl)phenoxy]methyl]benzoyl]-[2-(methylamino)-2-oxo-ethyl]amino]acetic Acid]
12%	CS(=O)(=O)NCCN(CC(=O)O)C(=O)c1cccc(COc2ccc(-c3cc(F)c(F)c4ccoc34)cc2)c1 [Example 16, 2-[[3-[[4-(4,5-Difluorobenzofuran-7-yl)phenoxy]methyl]benzoyl]-[2-(methanesulfonamido)ethyl]amino]acetic Acid]
13%	CSc1cc(F)c(F)cc1-c1ccc(OCc2cccc(C(=O)N(CCNS(C)(=O)=O)CC(=O)O)c2)cc1 [Example 17, 2-[[3-[[4-(4,5-Difluoro-2-methylsulfanyl-phenyl)phenoxy]methyl]benzoyl]-[2-(methanesulfonamido)ethyl]amino]acetic Acid]
23%	CC(C)(O)CCN(CC(=O)O)C(=O)c1cccc(COc2ccc(-c3cc(F)c(F)c4ccoc34)cc2)c1 [Example 18, 2-[[3-[[4-(4,5-Difluorobenzofuran-7-yl)phenoxy]methyl]benzoyl]-(3-hydroxy-3-methyl-butyl)amino]acetic Acid]
21%	CSc1cc(F)c(F)cc1-c1ccc(OCc2cccc(C(=O)N(CC(=O)O)Cc3ccncc3)c2)cc1 [Example 19, 2-[[3-[[4-(4,5-Difluoro-2-methylsulfanyl-phenyl)phenoxy]methyl]benzoyl]-(4-pyridylmethyl)amino]acetic Acid Trifluoroacetate]

The next lines start with the compound.

Compound	Emax
NC(=O)CN(CC(=O)O)C(=O)c1cccc(COc2ccc(-c3cc(F)c(F)c4ccoc34)cc2)c1 [Example 1, 2-[(2-Amino-2-oxo-ethyl)-[3-[[4-(4,5-difluorobenzofuran-7-yl)phenoxy]methyl]benzoyl]amino]acetic Acid]	12%
O=C(O)[C@@H]1[C@@H](O)CCN1C(=O)c1cccc(COc2ccc(-c3cc(F)c(F)c4ccoc34)cc2)c1 [Example 2, (2S,3S)-1-[3-[[4-(4,5-Difluorobenzofuran-7-yl)phenoxy]methyl]benzoyl]-3-hydroxy-pyrrolidine-2-carboxylic Acid]	5%
O=C(O)[C@@H]1[C@H](O)CCN1C(=O)c1cccc(COc2ccc(-c3cc(F)c(F)c4ccoc34)cc2)c1 [Example 3, (2S,3R)-1-[3-[[4-(4,5-Difluorobenzofuran-7-yl)phenoxy]methyl]benzoyl]-3-hydroxy-pyrrolidine-2-carboxylic Acid]	11%
CSc1cc(F)c(F)cc1-c1ccc(OCc2cccc(C(=O)N3CC[C@H](O)[C@H]3C(=O)O)c2)cc1 [Example 5, (2S,3S)-1-[3-[[4-(4,5-Difluoro-2-methylsulfanyl-phenyl)phenoxy]methyl]benzoyl]-3-hydroxy-pyrrolidine-2-carboxylic Acid]	10%
COCCN(CC(=O)O)C(=O)c1cccc(COc2ccc(-c3cc(F)c(F)cc3SC)cc2)c1 [Example 6, 2-[[3-[[4-(4,5-Difluoro-2-methylsulfanyl-phenyl)phenoxy]methyl]benzoyl]-(2-methoxyethyl)amino]acetic Acid]	86%
CSc1cc(F)c(F)cc1-c1ccc(OCc2cccc(C(=O)N(CCC#N)CC(=O)O)c2)cc1 [Example 7, 2-[2-Cyanoethyl-[3-[[4-(4,5-difluoro-2-methylsulfanyl-phenyl)phenoxy]methyl]benzoyl]amino]acetic Acid]	16%
CS(=O)(=O)CCN(CC(=O)O)C(=O)c1cccc(COc2ccc(-c3cc(F)c(F)c4ccoc34)cc2)c1 [Example 8, 2-[[3-[[4-(4,5-Difluorobenzofuran-7-yl)phenoxy]methyl]benzoyl]-(2-methylsulfonylethyl)amino]acetic Acid]	11%
O=C(O)CN(CC1CCOCC1)C(=O)c1cccc(COc2ccc(-c3cc(F)c(F)c4ccoc34)cc2)c1 [Example 9, 2-[[3-[[4-(4,5-Difluorobenzofuran-7-yl)phenoxy]methyl]benzoyl]-(tetrahydropyran-4-ylmethyl)amino]acetic Acid]	24%
CSc1cc(F)c(F)cc1-c1ccc(OCc2cccc(C(=O)N(CC(N)=O)CC(=O)O)c2)cc1 [Example 10, 2-[(2-Amino-2-oxo-ethyl)-[3-[[4-(4,5-difluoro-2-methylsulfanyl-phenyl)phenoxy]methyl]benzoyl]amino]acetic Acid]	6.7%
CN(C)C(=O)CN(CC(=O)O)C(=O)c1cccc(COc2ccc(-c3cc(F)c(F)c4ccoc34)cc2)c1 [Example 11, 2-[[3-[[4-(4,5-Difluorobenzofuran-7-yl)phenoxy]methyl]benzoyl]-[2-(dimethylamino)-2-oxo-ethyl]amino]acetic Acid]	7.4%
